Here are results for 25 compounds from US8106212B2, “Substituted enaminocarbonyl compounds” (Bayer Cropscience AG, priority 2006, dated 2012).

The structures appear in SMILES notation.

Assay type in all cases: in vivo
In experiment [1] the test system is larvae of the banded cucumber beetle (Diabrotica balteata). Nature of the experiment: Diabrotica balteata test, larvae in soil (DIABBA). The settings on record: 2 ppm in soil (mg/l), efficacy calculated from emerged maize plants. The protocol: [table] To produce a suitable preparation of active compound, 1 part by weight of active compound is mixed with the stated amounts of solvent and emulsifier, and the concentrate is diluted with water to the desired concentration. The active compound preparation is mixed with soil. The stated concentration refers to the amount of active compound per volume unit of soil (mg/l=ppm). The treated soil is filled into pots, and 5 maize corns are placed into each pot. 3 days after sowing, larvae of the banded cucumber beetle (Diabrotica balteata) are placed into the treated soil. After the desired period of time, the kill in % is determined. The efficacy is calculated from the number of maize plants that have emerged.

The subject of a further experiment is Boophilus microplus. The experiment in a line: Boophilus microplus test (BOOPMI injection). The settings on record: 20 μg/Tier injected into abdomen, 100% = no tick has laid fertile eggs. The protocol:
[table] To produce a suitable preparation of active compound, 1 part by weight of active compound is mixed with the stated amounts of solvent, and the concentrate is diluted with solvent to the desired concentration. The solution of active compound is injected into the abdomen (Boophilus microplus), and the animals are transferred into dishes and kept in a temperature-controlled room. After the desired period of time, the effect in % is determined. 100% means that no tick has laid any fertile eggs.

For experiment [2], the system named is green peach aphid (Myzus persicae). The experiment in a line: Myzus test (MYZUPE spray treatment). To be noted: Chinese cabbage discs sprayed. The protocol: [table] To produce a suitable preparation of active compound, 1 part by weight of active compound is mixed with the stated amounts of solvent and emulsifier, and the concentrate is diluted with emulsifier-containing water to the desired concentration. Discs of Chinese cabbage (Brassica pekinensis) which are infected by all stages of the green peach aphid (Myzus persicae) are sprayed with a preparation of active compound of the desired concentration. After the desired period of time, the effect in % is determined. 100% means that all aphids have been killed; 0% means that none of the aphids have been killed. [table] To produce a suitable preparation of active compound, 1 part by weight of active compound is mixed with the stated amounts of solvent and emulsifier, and the concentrate is diluted with emulsifier-containing water to the desired concentration. Discs of Chinese cabbage (Brassica pekinensis) which are infected by all stages of the green peach aphid (Myzus persicae) are sprayed with a preparation of active compound of the desired concentration. After the desired period of time, the effect in % is determined. 100% means that all aphids have been killed; 0% means that none of the aphids have been killed.

A further experiment deals with Lucilia cuprina larvae. The experiment in a line: Lucilia cuprina test (LUCICU). To be noted: 4 ppm, treated horse meat. The protocol: [table] To produce a suitable preparation of active compound, 1 part by weight of active compound is mixed with the stated amounts of solvent, and the concentrate is diluted with water to the desired concentration. Containers containing horse meat treated with the preparation of active compound of the desired concentration are populated with Lucilia cuprina larvae. After the desired period of time, the kill in % is determined. 100% means that all larvae have been killed; 0% means that none of the larvae have been killed.

Experiment [3] concerns larvae of the mustard beetle (Phaedon cochleariae). Nature of the experiment: Phaedon test (PHAECO spray treatment). To be noted: 500 g/ha, Chinese cabbage discs sprayed. The protocol: [table] To produce a suitable preparation of active compound, 1 part by weight of active compound is mixed with the stated amounts of solvent and emulsifier, and the concentrate is diluted with emulsifier-containing water to the desired concentration. Discs of Chinese cabbage (Brassica pekinensis) are sprayed with a preparation of active compound of the desired concentration and, after drying, populated with larvae of the mustard beetle (Phaedon cochleariae). After the desired period of time, the effect in % is determined. 100% means that all beetle larvae have been killed; 0% means that none of the beetle larvae have been killed.

Experiment [4] deals with cotton aphid (Aphis gossypii). Nature of the experiment: Aphis gossypii test (APHIGO), leaf dip. The settings on record: 0.8 ppm, cotton leaves dipped. The protocol: [table] To produce a suitable preparation of active compound, 1 part by weight of active compound is mixed with the stated amounts of solvent and emulsifier, and the concentrate is diluted with emulsifier-containing water to the desired concentration. Cotton leaves (Gossypium hirsutum) which are heavily infested by the cotton aphid (Aphis gossypii) are treated by being dipped into the preparation of active compound of the desired concentration. After the desired period of time, the kill in % is determined. 100% means that all aphids have been killed; 0% means that none of the aphids have been killed.

Experiment [5] relates to adult fleas (Ctenocephalides felis). Nature of the experiment: Ctenocephalides felis; oral (CTECFE). To be noted: 4 ppm in citrated cattle blood. The protocol: [table] To produce a suitable preparation of active compound, 1 part by weight of active compound is mixed with the stated amount of solvent. Part of the concentrate is diluted with citrated cattle blood, and the desired concentration is prepared. 20 unfed adult fleas (Ctenocephalides felis) are placed into a chamber whose top and bottom ends are closed with gauze. A metal cylinder whose bottom end is closed with parafilm is placed onto the chamber. The cylinder contains the blood/active compound preparation, which can be taken up by the fleas through the parafilm membrane. The blood is warmed to 37° C., but the flea chamber is at room temperature. After the desired period of time, the kill in % is determined. 100% means that all fleas have been killed; 0% means that none of the fleas have been killed.

In the next experiment the test system is Meloidogyne incognita. Nature of the experiment: Meloidogyne test (MELGIN spray treatment). To be noted: 4 ppm, nematicidal activity by formation of galls on lettuce roots (100% = no galls). The protocol: [table] To produce a suitable preparation of active compound, 1 part by weight of active compound is mixed with the stated amounts of solvent, and the concentrate is diluted with water to the desired concentration. Containers are filled with sand, active compound solution, Meloidogyne incognita egg/larvae suspension and lettuce seeds. The lettuce seeds germinate and the plants develop. On the roots, galls are formed. After the desired period of time, the nematicidal activity is determined by the formation of galls in %. 100% means that no galls were found; 0% means that the number of galls on the treated plants corresponds to that of the untreated controls.

Experiment [6] deals with green peach aphid (Myzus persicae). Nature of the experiment: Myzus test; oral (MYZUPE O). To be noted: 0.0064 ppm, oral uptake by sucking. The protocol: Myzus Test; Oral; (MYZUPE O) Solvent: 80 parts by weight of acetone To produce a suitable preparation of active compound, 1 part by weight of active compound is mixed with the stated amounts of solvent, and the concentrate is diluted with water to the desired concentration. Containers are populated with all stages of the green peach aphid (Myzus persicae), treatment is by sucking at the preparation of active compound of the desired concentration. After the desired period of time, the effect in % is determined. 100% means that all aphids have been killed; 0% means that none of the aphids have been killed.

For experiment [7] the test system is unchanged. Nature of the experiment: Myzus persicae test, hydroponic treatment (MYZUPE sys.). The settings on record: 4 ppm in water (mg/l), pea plant. The protocol:
[table] To produce a suitable preparation of active compound, 1 part by weight of active compound is mixed with the stated amounts of solvent and emulsifier, and the concentrate is diluted with water to the desired concentration. The preparation of active compound is mixed with water. The stated concentration refers to the amount of active compound per volume unit of water (mg/l=ppm). The treated water is filled into containers housing a pea plant (Pisum sativum) which is then infected with the green peach aphid (Myzus persicae). After the desired period of time, the kill in % is determined. 100% means that all aphids have been killed; 0% means that none of the aphids have been killed.

Where [8] appears, read: 100 g/ha, Biological Examples table.
[9] abbreviates: 4 g/ha, Biological Examples table.
Where [10] appears, read: 20 g/ha, Biological Examples table.

With `CN(Cc1cnc(Cl)c(F)c1)C1=CC(=O)OC1` [Example 1, 4-[[(6-Chloro-5-fluoropyridin-3-yl)methyl](methyl)amino]furan-2(5H)-one], the “Kill rate in % after 10 days” value in experiment [1] is 100%. For the same compound, in the experiment with Boophilus microplus, the “Kill rate in % after 7 days” value turned out to be 30%.

Consider `CN(Cc1cnc(Cl)c(C#N)c1)C1=CC(=O)OC1` [Example 18], for which the “Kill rate in % after 5 days” value in experiment [2] (setting [8]) is 100%. As for `CC1OC(=O)C=C1N(C)Cc1cnc(Cl)c(Cl)c1` (centres unmarked) [Example 7, 4-[[(5,6-dichloropyridin-3-yl)methyl](methyl)amino]-5-methylfuran-2(5H)-one], the “Kill rate in % after 5 days” value in experiment [2] (setting [8]) amounted to 90%. In the case of `CN(Cc1cnc(Cl)nc1)C1=CC(=O)OC1` [Example 5, 4-[[(2-Chloropyrimidin-5-yl)methyl](methyl)amino]furan-2(5H)-one], the “Kill rate in % after 5 days” value in experiment [2] (setting [9]) is reported as 100%.

Turning to `O=C1C=C(N(Cc2cnc(Br)c(F)c2)C2CC2)CO1` [Example 25], in experiment [2] (setting [9]), the “Kill rate in % after 5 days” value amounted to 100%. Besides, in the experiment with Lucilia cuprina larvae, the “Kill rate in % after 2 days” value was 100%. With `CCN(Cc1cnc(Cl)c(Cl)c1)C1=CC(=O)OC1` [Example 16], the “Kill rate in % after 5 days” value in experiment [2] (setting [10]) is 100%. For `CCN(Cc1cnc(Cl)c(C)c1)C1=CC(=O)OC1` [Example 20], the “Kill rate in % after 7 days” value in the experiment on Boophilus microplus worked out at 30%. Turning to `CN(Cc1cnc(Cl)c(Cl)c1)C1=CC(=O)OC1` [Example 10, 4-[[(5,6-dichloropyridin-3-yl)methyl](methyl)amino]furan-2(5H)-one], the “Kill rate in % after 5 days” value came to 100% in [2] (setting [9]) and 100% in [2] (20 g/ha, comparative table). In addition, in [3], the “Kill rate in % after 7 days” value is on record as 100%. `O=C1C=C(N(Cc2cnc(Br)c(Br)c2)C2CC2)CO1` [Example 21]: the “Kill rate in % after 5 days” value in experiment [2] (setting [10]) is given as 80%. Consider `Cc1cc(CN(C2=CC(=O)OC2)C2CC2)cnc1Cl` [Example 12], for which the “Kill rate in % after 6 days” value in experiment [4] is given as 50%. Consider `O=C1C=C(N(Cc2cnc(Cl)c(Cl)c2)C2CC2)CC1` [Example 17], for which the “Kill rate in % after 5 days” value in [2] (setting [8]) turned out to be 100%. Consider `CN(Cc1cnc(Cl)c(Cl)c1)C1=C(Cl)C(=O)OC1` [Example 8, 3-Chloro-4-[[(5,6-dichloropyridin-3-yl)methyl](methyl)amino]furan-2(5H)-one], for which the “Kill rate in % after 5 days” value in [2] (setting [8]) was 80%. For the compound `O=C1C=C(N(Cc2cnc(Cl)c(Cl)c2)C2CC2)CO1` [Example 11], the “Kill rate in % after 5 days” value in experiment [2] (setting [9]) is recorded as 100%; in experiment [2] (100 g/ha, comparative table) it was 100%. The “Kill rate in % after 7 days” value stood at 100% in [3] and 50% in the experiment on Boophilus microplus. For the same compound, the “Kill rate in % after 2 days” value in [5] was found to be 50%. In the case of `O=C1C=C(N(Cc2cnc(Cl)c(Br)c2)C2CC2)CO1` [Example 15], in the experiment on Meloidogyne incognita, the “Kill rate in % after 14 days” value turned out to be 70%. The “Kill rate in % after 6 days” value in [4] is 40%. Consider `CN(Cc1cnc(Cl)c(I)c1)C1=CC(=O)OC1` [Example 19], for which the “Kill rate in % after 5 days” value in experiment [2] (setting [10]) was found to be 70%. As to `CON(Cc1cnc(Cl)c(Cl)c1)C1=CC(=O)OC1` [Example 2, 4-[[(5,6-Dichloropyridin-3-yl)methyl](methoxy)amino]furan-2(5H)-one], the “Kill rate in % after 7 days” value in the experiment with Boophilus microplus is given as 30%. Regarding `Cc1cc(CN(C)C2=CC(=O)OC2)cnc1Cl` [Example 13], in experiment [6], the “Kill rate in % after 5 days” value was determined as 70%. As for `O=C1C=C(N(Cc2cnc(Br)c(Cl)c2)C2CC2)CO1` [Example 23], the “Kill rate in % after 7 days” value in the experiment with Boophilus microplus worked out at 30%.

With `CN(Cc1cnc(Br)c(Cl)c1)C1=CC(=O)OC1` [Example 4, 4-[[(6-Bromo-5-chloropyridin-3-yl)methyl](methyl)amino]furan-2(5H)-one], the “Kill rate in % after 5 days” value in [7] is listed as 100%.

With `O=C1C=C(N(Cc2cnc(Cl)c(I)c2)C2CC2)CO1` [Example 3, 4-[[(6-Chloro-5-iodopyridin-3-yl)methyl](cyclopropyl)amino]furan-2(5H)-one], the “Kill rate in % after 7 days” value in the experiment with Boophilus microplus is recorded as 40%. As for `O=C1C=C(N(Cc2cnc(Cl)c(F)c2)C2CC2)CO1` [Example 26], the “Kill rate in % after 2 days” value in experiment [5] stood at 60%. For the compound `CN(Cc1cnc(Br)c(F)c1)C1=CC(=O)OC1` [Example 24], the “Kill rate in % after 5 days” value in [7] and in experiment [2] (setting [9]) was 100% throughout. `O=C1C=C(N(Cc2cnc(Cl)nc2)C2CC2)CO1` [Example 6, 4-[[(2-Chloropyrimidin-5-yl)methyl](cyclopropyl)amino]furan-2(5H)-one]: the “Kill rate in % after 5 days” value in [2] (setting [10]) was 100%. With `CN(Cc1cnc(Br)c(Br)c1)C1=CC(=O)OC1` [Example 22], the “Kill rate in % after 5 days” value in experiment [7] came out at 100%. With `CN(Cc1cnc(Cl)c(Br)c1)C1=CC(=O)OC1` [Example 14], the “Kill rate in % after 5 days” value in experiment [2] (setting [10]) is recorded as 100%.
